Experiments:
primary rat hepatocytes [1] = experiment: Uptake of monocrotaline into primary rat hepatocytes (Tu et al. 2013); format: cell-based; conditions: scaled with 120 mg protein/g liver and 34 g liver/kg bw from Tu et al. ([2013])
[2] = Substrate depletion in incubations with pooled rat liver microsomes; format: in vitro ADME, rat (Sprague–Dawley)
Method: After 5 min of pre-incubation in a shaking water bath at 37 °C, the reactions were started by the addition of 1 mM NADPH. The reactions were carried out for 1 h and 2 h for liver and intestinal microsomes, respectively. For each incubation, a corresponding control incubated in the absence of NADPH was included by adding buffer instead of NADPH. To stop the metabolic conversion, 100 µl of ice-cold methanol was added and the sample was put on ice, then centrifuged at 5000 × g for 20 min at 4 °C using a microcentrifuge (CT15RE, VWR, Leuven, Belgium). Supernatants were diluted 200 times in 90% (v/v) acetonitrile and transferred to LC–MS vials. LC–MS analysis was performed using a Shimadzu Nexera XR LC-20AD SR UPLC system in tandem with a Shimadzu LCMS-8040 mass spectrometer (Shimadzu, Kyoto, Japan). From each incubation, 1 µl of supernatant was loaded onto a Luna Omega polar C18 100A LC column (1.6 µm 100 × 2.1 mm, Phenomenex) fitted with a FP polar precolumn (Phenomenex), using a flow rate of 0.3 ml/min. The temperature was set at 40 °C and 5 °C for column and sample, respectively. The mobile phase consisted of ultrapure water (solvent A) and acetonitrile (solvent B) both containing 0.1% (v/v) formic acid. The gradient began with 100% solvent A (0% B) for 1 min to wash away unwanted salts, followed by a linear gradient from 0 to 5% B till 8 min and a further increase to 100% B in 2 min, keeping the elution at 100% B for 0.5 min, then the column was set back to the starting conditions and equlibrated for 3.4 min before the next injection. […] For all incubations, three independent replicates were performed.
The ratio of Vmax and Km was calculated as the in vitro catalytic efficiency (kcat) expressed in […]. […] The rat liver weight of 8.5 g and small intestine weight of 3.5 g (see Table 1) (Brown et al. [1997]) were used to scaled the in vivo kcat values to values expressed in ml/min/tissue.

male Sprague–Dawley rats = conditions: IP single dose 0; 100; 200; 225; 300, 12 h after dosing, BW 100–130 g; ref Copple et al. [2002]; cited from earlier work
primary rat hepatocytes [3] = experiment: WST-1 cytotoxicity assay with primary rat hepatocytes; format: cell-based, rat (Sprague–Dawley)
Method: The monocrotaline-induced liver toxicity was tested in vitro using the WST-1 assay which measures the formazan formation by the metabolically active cells from WST-1. Pooled cryopreserved plateable male rat (Sprague–Dawley) hepatocytes (RTCP10™) were thawed and seeded in accordance with the manufacturer’s protocol. Briefly, cells were seeded in 96-well plates (Greiner bio-one, Alphen aan den Rijn, The Netherlands) at a concentration of 5 × 10^5 cells/ml to give 1.25 × 10^4 cells/well and incubated at 37 °C, 5% CO2 in a humidified atmosphere for 6 h to allow cell adherence. […] The solvent DMSO (0.5% (v/v) final concentration in exposure medium) was used as a negative control and triton X (final concentration 1% (v/v) in exposure medium) served as a positive control in all cytotoxicity assays. After exposure for 24 h, 5 μl (1:20 dilution) WST-1 reagent was added to each well and plates were incubated for an additional 1 h. Then, the plate was shaken at 1000 rpm for 1 min, and absorbance was measured at 440 nm (background absorbance at 620 nm was subtracted) using a SpectraMax M2 (Molecular Devices, Sunnyvale, USA).
Data are presented as mean values ± SE from three independent experiments with three different batches of rat hepatocytes. The cell viability was expressed as percentage of the solvent control, with the solvent control set at 100%. The obtained concentration–response curves for hepatotoxicity were fitted with a symmetrical sigmoidal model (Hill slope) which was further used to derive IC50 values using log [inhibitor] vs. normalized response using GraphPad Prism software (version 5.00 for Windows, GraphPad software, San Diego, USA).

[4] = liver, 35 mg microsomal protein/g liver, present study

SMILES: C[C@H]1C(=O)O[C@@H]2CCN3CC=C(COC(=O)[C@](C)(O)[C@]1(C)O)[C@H]23 [Monocrotaline]
- rate for uptake in the liver of rats, scaled (primary rat hepatocytes [1]): 3.55 µmol/h/kg bw
- Km ([2]; Sprague-Dawley, rat, pH 7.4, liver, present study): 9.2 µM
- scaled liver kcat, times lower than lasiocarpine ([2]; liver): 41.8 times
- scaled liver kcat, times lower than riddelliine ([2]; liver): 4.3 times
- Scaled kcat ([2]; liver weight 8.5 g, present study): 1.9 ml/min/ tissue
- Scaled Vmax [2, 4]: 2.1 nmol/min/g tissue
- Scaled kcat [2, 4]: 0.2 ml/min/g tissue
- KmLM1, affinity constant ([2]; liver, PBK model code): 9.22 µmol/L
- VmaxLM1c, unscaled maximum rate of metabolism ([2]; liver, PBK model code): 0.06 nmol/min-1/mg protein
- Vmax ([2]; liver, present study): 0.06 nmol/min/mg microsomal protein
- POD: NOAEL, increased plasma ALT (male Sprague–Dawley rats): 100 mg/kg bw
- IC50 (primary rat hepatocytes [3]; Rattus norvegicus, Hepatocyte, 24 h exposure, serum-free medium, WST-1, read-out: IC50 cell viability): 225 µM
- decrease in cell viability (primary rat hepatocytes [3]; highest concentration 600 µM, 24 h): over 60%
